These results are taken from the SangsterLogP compilation.

This data set can be described thus: from Ebert, E.; Eckhardt, W.; Jakel, K.; Moser, P.; Sozzi, D.; Vogel, C. (1989). Quantitative structure-activity relationships of fungicidally active triazoles: analogs and stereoisomers of propiconazole …. The note with it: pH 7.0.
In general, logD refers to lipophilicity at a set pH, counting ionised and neutral species. As for `COCCOCC1COC(Cn2cncn2)(c2ccc(Cl)cc2Cl)O1` (stereo not given), the logD was 2.03. In the case of `CCC1COC(Cn2cncn2)(c2ccc(Cl)cc2Cl)O1` (stereo not given) it was 3.03; in that of `CCC1COC(Cn2cncn2)(c2ccc([N+](=O)[O-])cc2)O1` (stereo not given), 1.52. In the case of `OCC1COC(Cn2cncn2)(c2ccc(Cl)cc2Cl)O1` (stereo not given) it was 1.76; in that of `CC1COC(Cn2cncn2)(c2ccc(-n3cncn3)cc2Cl)O1` (stereo not given), 1.28. As to `Cc1ccc(C2(Cn3cncn3)OCCO2)cc1`, the logD was found to be 1.55. In the case of `CCC1COC(Cn2cncn2)(c2ccc(-c3ccccc3)cc2)O1` (stereo not given) it was 3.71. In the case of `CCC1COC(Cn2cncn2)(c2ccc(NC(=O)NC)cc2)O1` (stereo not given) it was 0.62; in that of `CCC1COC(Cn2cncn2)(c2ccc(NC(=O)C(F)(F)F)cc2)O1` (stereo not given), 1.08. `CCC1COC(Cn2cncn2)(c2ccc(NC(=O)c3ccc([N+](=O)[O-])cc3)cc2)O1` (stereo not given): the logD was 2.17.
